Consider two molecules from article PMC11088877, “AMP-activated protein kinase can be allosterically activated by ADP but AMP remains the key activating ligand” (Biochemical Journal, 2024).

Where “and” joins values, the source holds several entries; their conditions need not be identical. Identical values can stand only once.

Experiment [1] deals with T1, phosphorylated human α2β2γ1 complex (WT) (Homo sapiens, UniProt P54619+P54646).
T1 construct: made in house; host or cells: Escherichia coli
T1 sequence (P54619 whole entry): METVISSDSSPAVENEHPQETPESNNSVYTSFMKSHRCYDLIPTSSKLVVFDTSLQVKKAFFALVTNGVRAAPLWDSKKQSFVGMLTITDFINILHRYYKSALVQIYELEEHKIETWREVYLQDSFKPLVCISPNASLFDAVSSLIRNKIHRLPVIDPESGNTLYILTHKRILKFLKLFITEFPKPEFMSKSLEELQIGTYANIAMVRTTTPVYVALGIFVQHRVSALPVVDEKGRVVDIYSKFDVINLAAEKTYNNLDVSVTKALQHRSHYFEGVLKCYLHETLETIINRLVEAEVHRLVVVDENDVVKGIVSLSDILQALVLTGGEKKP
T1 sequence (P54646 whole entry): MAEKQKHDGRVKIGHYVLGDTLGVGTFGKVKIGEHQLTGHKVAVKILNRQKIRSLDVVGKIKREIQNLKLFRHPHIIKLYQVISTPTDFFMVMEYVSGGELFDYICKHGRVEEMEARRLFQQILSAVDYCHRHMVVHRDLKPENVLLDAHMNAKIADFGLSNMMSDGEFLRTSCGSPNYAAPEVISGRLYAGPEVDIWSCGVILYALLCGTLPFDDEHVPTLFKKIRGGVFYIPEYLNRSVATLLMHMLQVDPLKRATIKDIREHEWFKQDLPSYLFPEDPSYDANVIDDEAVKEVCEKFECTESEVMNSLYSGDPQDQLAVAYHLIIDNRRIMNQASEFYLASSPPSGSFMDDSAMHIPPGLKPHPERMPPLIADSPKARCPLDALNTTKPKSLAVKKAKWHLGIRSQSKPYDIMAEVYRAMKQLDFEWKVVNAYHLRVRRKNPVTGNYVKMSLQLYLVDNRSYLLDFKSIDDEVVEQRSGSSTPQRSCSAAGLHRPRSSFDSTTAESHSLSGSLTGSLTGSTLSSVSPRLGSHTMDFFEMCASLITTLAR
T1 sequence (O43741 whole entry partner): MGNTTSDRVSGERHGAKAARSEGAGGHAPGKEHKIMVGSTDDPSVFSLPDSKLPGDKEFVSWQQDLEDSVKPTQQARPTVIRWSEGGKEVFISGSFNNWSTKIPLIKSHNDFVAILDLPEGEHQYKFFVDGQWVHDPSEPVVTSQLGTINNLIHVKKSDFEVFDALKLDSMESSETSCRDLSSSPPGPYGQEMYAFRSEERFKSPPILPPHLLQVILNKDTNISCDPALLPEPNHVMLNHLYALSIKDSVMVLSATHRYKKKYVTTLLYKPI
As to the kind of experiment: AMPK inactivation and Thr172 dephosphorylation by PP2Cα (PPM1A), WT. Type of experiment: biochemical. The settings on record: 300 µM nucleotide, absence of ATP. The procedure:
(§1) The relative roles of the three CBS sites in the other two mechanisms of activation of AMPK by AMP or ADP, i.e. promotion of Thr172 phosphorylation by LKB1, and protection against Thr172 dephosphorylation by protein phosphatases, have not been examined previously. As expected, incubation of the α2β2γ1 AMPK complex with a fixed, limiting amount of purified LKB1:STRADα:MO25α complex in the presence of 200 µM Mg.ATP^2− caused a large degree of activation (Figure 5A) and phosphorylation (Figure 5B) of AMPK (unphosphorylated α2β2γ1 complex), which were stimulated more than 2-fold by 300 µM AMP and 1.6-fold by 300 µM ADP.
(§2) Figure 6. Effects of AMP or ADP on AMPK inactivation and Thr172 dephosphorylation by PP2Cα (PPM1A). Human α2β2γ1 complexes (WT, or with L129D/V130D, V276G/L277G or I312G mutations affecting CBS1, CBS3 or CBS4 respectively), all phosphorylated on Thr172, were incubated with a fixed concentration of PP2Cα (PPM1A) in the presence or absence of AMP or ADP (both 300 µM) as described in the Materials and methods section. After the incubation, aliquots were withdrawn for (A) AMPK assay or (B) Western blots. […] For (B), due to a limit on the number of lanes that could be run on one gel, single replicates from the triplicate assays were analysed. […]

The target in experiment [2] is T2, human α2β2γ1 complex, CBS3 mutant (V276G/L277G) (Homo sapiens, UniProt P54619+P54646, L277G/V276G).
T2 construct: made in house; host or cells: Escherichia coli
T2 sequence (P54619 whole entry V276G/L277G): as the sequence (P54619 whole entry) above, with V276G, L277G counted along it
T2 sequence (P54646 whole entry): as the sequence (P54646 whole entry) above
T2 sequence (O43741 whole entry partner): as the sequence (O43741 whole entry partner) above
The experiment is described as follows: AMPK inactivation and Thr172 dephosphorylation by PPM1A, CBS3 mutant. Type of experiment: biochemical. The settings on record: 300 µM nucleotide, absence of ATP. Here is the method:
as §1, §2

The target of experiment [3] is T3, human α2β2γ1 complex, CBS1 mutant (L129D/V130D) (Homo sapiens, UniProt P54619+P54646, L129D/V130D).
T3 construct: made in house; host or cells: Escherichia coli
T3 sequence (P54619 whole entry L129D/V130D): as the sequence (P54619 whole entry) above, with L129D, V130D counted along it
T3 sequence (P54646 whole entry): as the sequence (P54646 whole entry) above
T3 sequence (O43741 whole entry partner): as the sequence (O43741 whole entry partner) above
The experiment is described as follows: AMPK inactivation and Thr172 dephosphorylation by PPM1A, CBS1 mutant. The note with it: 300 µM nucleotide, absence of ATP. Type of experiment: biochemical. Here is the method: as §1, §2

For experiment [4], the target named is T4, GST-tagged human α2 kinase domain (Homo sapiens, UniProt P54646).
T4 construct: Human GST-tagged α2 kinase domain (1–310); made in house
T4 sequence (P54646 1-310): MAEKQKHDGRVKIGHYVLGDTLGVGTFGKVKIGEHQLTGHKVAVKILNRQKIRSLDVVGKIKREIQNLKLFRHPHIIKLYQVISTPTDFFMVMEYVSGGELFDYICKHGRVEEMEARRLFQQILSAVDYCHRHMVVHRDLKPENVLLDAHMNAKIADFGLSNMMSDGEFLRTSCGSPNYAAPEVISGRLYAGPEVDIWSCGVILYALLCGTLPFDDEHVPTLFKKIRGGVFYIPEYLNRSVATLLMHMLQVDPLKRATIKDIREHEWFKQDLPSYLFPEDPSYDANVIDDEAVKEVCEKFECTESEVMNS
The experiment is described as follows: Inhibition of GST:α2-kinase domain fusion by AMP or ADP. The note with it: for Activation / IC50: α2 kinase domain. Type of experiment: biochemical. The source says: To confirm that the inhibition of kinase activity by ADP at high concentrations was due to competition with ATP at the catalytic site on the α subunit, we repeated the assays using a glutathione-S-transferase- (GST-) tagged human α2 kinase domain that had been phosphorylated by LKB1. […] These IC50 values were similar to those obtained with the intact heterotrimers from rat liver (Supplementary Table S1).
Figure 3. Inhibition of GST:α2-kinase domain fusion by AMP or ADP. The kinase domain (phosphorylated on Thr172 by the LKB1:STRADα:MO25α complex) was incubated with various concentrations of AMP or ADP as in Figure 1 using [ATP] at 0.2 (A), 1.0 (B) or 5.0 mM (C) and keeping [Mg^2+] in a constant excess of 4.8 mM above [ATP] [19]. Results (mean ± SD, n = 2) were fitted to the equation: Y = Basal-(Basal × X)/(IC50 + X) where Y is the kinase activity, X is the concentration of AMP or ADP, and IC50 is the concentration of AMP or ADP causing half-maximal inhibition. Dashed vertical lines show the estimates of IC50 values, and best-fit values of all parameters used to generate the curves are listed in Supplementary Table S1.
Sources of antibodies were as described: pThr172 (AMPK-α: Cell Signaling Technologies, Danvers, MA, U.S.A., Cat# 2535), AMPK-α2 [22]. Rat liver AMPK was purified as described previously. Plasmid encoding human (His)6-tagged AMPK (α2β2γ1, bacterially expressed) generated as in [23], was a gift from AstraZeneca, Cambridge, U.K. The L129D/V130D (CBS1), V276G/L277G (CBS3) and I312G (CBS4) mutations in the α2β2γ1 complex were generated using the Quikchange II site-directed mutagenesis kit (Agilent Technologies) and confirmed by DNA sequencing. Human GST-tagged α2 kinase domain (1–310), LKB1:STRAD-α:MO25-α complexes, GST-tagged CaMKK2 [26], and PPM1A (PP2Cα) were produced as described. Bacterially expressed heterotrimers were activated by phosphorylation of Thr172 by GST-tagged CaMKK2 in the presence of ATP, and CaMKK2 was subsequently removed by passage through glutathione-Sepharose. Human GST-tagged α2 kinase domain was activated in a similar manner except that human (His)6-tagged LKB1:STRAD-α:MO25-α complex was used and removed after activation via passage through a His-Trap column. Recombinant human 5′-nucleotidase, CD73, Cat # 5795-EN-01, was from R&D systems (Minneapolis, MN, U.S.A.).
AMPK assays measured the transfer of radioactivity from [γ-^33P]ATP to a peptide substrate, which was separated from unreacted ATP by binding to P81 paper. This assay was described previously except that we used [γ-^33P] rather than [γ-^32P]ATP. In some assays (specified in Figure legends) the concentration of ATP was increased from 0.2 to 1 or 5 mM ATP, with MgCl2 concentrations maintained at a constant 4.8 mM excess above the concentration of ATP [19]. Where allosteric activation by AMP or ADP was being studied, we used the SAMS peptide as substrate. For all other assays the AMARA peptide was used.

Experiment [5] deals with FLAG-γ1-containing AMPK complexes. Also on record: method as in PMID 26542978. The note with it: ADP 300 µM to 3 mM; cited from earlier work.

For `Nc1ncnc2c1ncn2[C@@H]1O[C@H](COP(=O)(O)OP(=O)(O)O)[C@@H](O)[C@H]1O` [ADP], the “inactivation and dephosphorylation of AMPK by PPM1A in the presence of nucleotide” value in experiment [1] was “greatly reduced”. For the same molecule, the “protective effect of nucleotide against PPM1A in the mutant” value is reported as “almost completely abolished” in experiment [2] and “unaffected” in experiment [3]. Besides, the Activation result in experiment [4] (0.2 mM ATP), in experiment [4] (1.0 mM ATP) and in experiment [4] (5.0 mM ATP) was “none” throughout. The IC50 amounted to 0.67 mM in experiment [4] (0.2 mM ATP), 1.6 mM in experiment [4] (1.0 mM ATP) and 3.5 mM in experiment [4] (5.0 mM ATP). The “stimulation of activation by LKB1” value in experiment [5] is below 2 fold.

For `Nc1ncnc2c1ncn2[C@@H]1O[C@H](COP(=O)(O)O)[C@@H](O)[C@H]1O` [AMP], the “inactivation and dephosphorylation of AMPK by PPM1A in the presence of nucleotide” value in experiment [1] was “greatly reduced”. The “protective effect of nucleotide against PPM1A in the mutant” value in experiment [2] is “almost completely abolished”; in experiment [3] it was “unaffected”. Also, the “IC50 of AMP relative to IC50 of ADP” value in experiment [4] (GST-α2 kinase domain, 0.2 to 5 mM ATP) is recorded as around 3 fold. The Activation result in experiment [4] (0.2 mM ATP), in experiment [4] (1.0 mM ATP) and in experiment [4] (5.0 mM ATP) was “none” throughout. Also, the IC50 was 2.2 mM in experiment [4] (0.2 mM ATP); 5.4 mM in experiment [4] (1.0 mM ATP); 13 mM and 13.4 mM in experiment [4] (5.0 mM ATP).

In general, IC50 refers to the concentration that inhibits the measured activity by half. A lower IC50 goes with greater potency.
